Holding throughout (format): cell-based
For assay [1], the system named is J558 cells. The experiment in a line: UPR markers in J558 myeloma cells expressing GFP fusions. On the procedure: (§1) Transfections of HT1080, NIH 3T3 and HEK 293T cells were carried out ˜24 hr after plating using Polyfect (Qiagen, Valencia, Calif.) and cells harvested after ˜48 hr. J558 cells were transfected by electroporation using Bio-rad GENE pulser II at settings of 250 v, 950uF. Vector without insert was used to equalize total plasmid. In most experiments 0.15 μg of pEGFP-C1 served as an internal control. For experiments not involving immunoprecipitation, 6×10^5 cells were plated in 6 well plates and cell lysis was with Mammalian Protein Extraction Reagent (Pierce). For immunoprecipitation, 2.4×10^6 cells were seeded in 100 mm dishes and cells were lysed in RIPA buffer (1×PBS, 1% Nonidet P40. 0.5% sodium deoxycholate, 0.1% SDS). Lysis buffers were supplemented with Protease Inhibitor Cocktail (Sigma) and 10 mM iodoacetamide. Supernatants were analyzed after a 10,000×g centrifugation using standard techniques for immunoprecipitation, SDS-PAGE, immunoblotting and ECL. Treatment of cells with MG132 (Sigma) was at 50 μM for eight hr. Cycloheximnide was used at 50 μg/ml. All cells were collected at the end of the six hr chase.
(§2) 24 hr after transfection with constructs encoding GFP or GFP fusion proteins, cells were stained with annexin V-PE (BD Pharmingen) and analyzed on a Beckman coulter XL. Data for J558 was average of three experiments, NIH 3T3 was from 2 experiments. Gates were set to analyze cells expressing GFP using 525 band-pass filter and evaluated for annexin V-PE staining using a 575 band-pass filter. To isolate cells expressing GFP, J558 cells were harvested 24 hr after transfection and sorted on a BD FACS Aria. Transfection efficiencies were 7-10%. 2×10^4 cells expressing GFP fusions were isolated.
Cells with active secretory pathways, such as myeloma, might be predicted to be particularly susceptible to ER stress. […] As with NIH 3T3 cells, expression of the Ube2G2 binding site in the well characterized myeloma cell line J558 led to increases in BiP and phospho-eIF2α.

Assay [2] relates to HeLA, U20S and HT1080. The experiment in a line: Cell death in epithelial cancer and sarcoma cell lines. From the text:
(§3) Similarly, an increase in phospho-eIF2α, which attenuates translation and is activated by PERK, was also observed. […] An effective UPR ultimately requires an increase in ERAD. However, the ectopic expression of the Ube2G2 binding site should create a block specifically at this point.

In assay [3] the test system is NIH 3T3 cells. The experiment in a line: UPR markers in NIH 3T3 cells expressing GFP fusions. Here is the method:
as §1, §3

Assay [4] concerns ERAD substrate CD3-δ. The experiment in a line: CD3-δ level in co-transfected cells by immunoblotting. The following applies: co-transfection with CD3-δ, immunoblot. On the procedure: as §1
FIG. 7 depicts the stabilization of CD3-δ protein in cells transfected with the G2BD, but not with the G2BD with amino acids 579-584 (of SEQ ID NO:2) mutated. HEK 293T cells were transfected with the ERAD substrate CD3-δ along with the indicated GFP fusions of gp78. The left and right sides are two separate experiments.
(§4) To test this, GFP fusions of either a minimal E2 binding domain (GFP-574-611) or a more extended region that includes the C-terminus of gp78 (GFP-574-643) were evaluated (FIG. 21A). […] To assess this further, the C-terminal region of gp78 was fused to the eight amino acid Flag tag. […] Mdm2 is a RING finger E3 for both itself and p53 that is neither an ERAD substrate nor known to utilize Ube2G2 as an E2. […] To establish with certainty that the effect observed with expression of the Ube2G2 binding site is a consequence of binding endogenous E2, and not due to other unanticipated effects, cells were co-transfected with increasing amounts of Ube2G2 (FIG. 21C, lanes 3 and 4). […] These findings clearly establish that the isolated E2 binding site has the potential to markedly alter ERAD of CD3-δ. To ensure the effect observed was not peculiar to one substrate, TCR-α was evaluated (FIG. 21D).
For orientation: Immunoblotting shows a protein as a band on a membrane.

The test system of assay [5] is ERAD substrate TCR-α. Kind of assay: TCR-α level in co-transfected cells. The following applies: co-transfection with TCR-α. Here is the method: as §1
FIG. 9 depicts the stabilization of endogenous TCRα by the G2BD. TCR-α is a subunit of the T cell antigent receptor and an ERAD substrate. TCR-α was stabilized by the region implicated in Ube2G2 binding.
as §4

Assay [6] deals with HEK 293T cells or NIH 3T3 cells. Kind of assay: Cell death by microscopy in HEK 293T or NIH 3T3 cells.
Source text: as §3

The test system of assay [7] is J558 cells. The experiment in a line: Loss of J558 cells expressing GFP fusions by microscopy. The following applies: relative to GFP574-611E2-m2. Here is the method:
(§5) This was verified by a rapid loss of GFP immunoreactivity from cells expressing GFP574-611 (FIG. 7C). To confirm that this is a consequence of apoptosis, cells were evaluated by flow cytometry 24 hours after transfection. This early point was chosen, as by 48 hours few cells expressing the GFP574-611 could be discerned microscopically. […] Thus, the isolated Ube2G2 binding site of gp78 initiates an UPR in cells and a program leading to apoptotic cell death preferentially in myeloma cells.

Assay [8] concerns the target T1, endogenous UbcH5B (Homo sapiens, UniProt P62837).
T1 construct: endogenous in cells; host or cells: HEK 293T
Kind of assay: Co-immunoprecipitation of endogenous UbcH5B with GFP fusions in HEK 293T cells. Particulars: anti-GFP IP. Here is the method:
(§6) Transfections of HT1080, NIH 3T3 and HEK 293T cells were carried out ˜24 hr after plating using Polyfect (Qiagen, Valencia, Calif.) and cells harvested after ˜48 hr. J558 cells were transfected by electroporation using Bio-rad GENE pulser II at settings of 250 v, 950uF. Vector without insert was used to equalize total plasmid. In most experiments 0.15 μg of pEGFP-C1 served as an internal control. For experiments not involving immunoprecipitation, 6×10^5 cells were plated in 6 well plates and cell lysis was with Mammalian Protein Extraction Reagent (Pierce). […] Supernatants were analyzed after a 10,000×g centrifugation using standard techniques for immunoprecipitation, SDS-PAGE, immunoblotting and ECL. […]
(§7) FIG. 6 depicts the specific binding of gp78 residues 574-611 (of SEQ ID NO:2) to endogenous Ube2G2 in HEK 293T cells. Cells were transfected with plasmids encoding GFP fusions of the indicated regions of gp78, and co-immunoprecipitation was evaluated. […]
(§8) To determine the specificity of E2 binding in cells, GFP fusions encompassing the E2 binding region were expressed in cells, and co-immunoprecipitation of endogenous E2 was tested using antibodies raised specifically against Ube2g1, Ube2G2 and UbcH5B (FIG. 19B). […] In contrast, and consistent with the in vitro binding data in FIG. 18, no association with endogenous UbcH5B or Ube2g1 was detected (FIG. 19B third and fourth panels, left). […]

For assay [9], the system named is NIH 3T3 cells. The experiment in a line: Annexin V staining by flow cytometry in NIH 3T3 cells. The following applies: 24 hours after transfection.
Source text: as §2, §5

For assay [10], the system named is human multiple myeloma cells. The experiment in a line: Ube2G2 binding site expression in human myeloma.
Assay [11] deals with T2, endogenous Ube2g1 (Homo sapiens, UniProt P62253).
T2 construct: endogenous in cells; host or cells: HEK 293T
T2 sequence (P62253 1-170): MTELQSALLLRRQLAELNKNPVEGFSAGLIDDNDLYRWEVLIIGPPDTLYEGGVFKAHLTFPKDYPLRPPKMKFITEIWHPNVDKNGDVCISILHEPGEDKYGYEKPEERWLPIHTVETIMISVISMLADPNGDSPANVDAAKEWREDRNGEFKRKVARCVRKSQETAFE
Kind of assay: Co-immunoprecipitation of endogenous Ube2G1 with GFP fusions in HEK 293T cells. Particulars: anti-GFP IP. Here is the method: as §6, §7, §8

The target of assay [12] is T3, endogenous Ube2G2 (Homo sapiens, UniProt P60604).
T3 construct: endogenous in cells; host or cells: HEK 293T
T3 sequence (P60604 1-165): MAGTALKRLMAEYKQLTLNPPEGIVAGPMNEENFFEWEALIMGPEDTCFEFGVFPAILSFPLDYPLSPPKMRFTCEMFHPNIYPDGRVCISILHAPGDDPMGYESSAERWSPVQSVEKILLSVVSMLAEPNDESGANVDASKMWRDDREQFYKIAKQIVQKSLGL
Kind of assay: Co-immunoprecipitation of endogenous Ube2G2 with GFP fusions in HEK 293T cells. Particulars: anti-GFP IP. On the procedure:
as §6, §7, §8

Assay [13] has as its system J558 cells. The experiment in a line: Annexin V staining by flow cytometry in J558 cells. The following applies: 24 hours after transfection, vs GFP574-611E2-m2 or GFP alone.
Source text: as §2, §5
Background: Flow cytometry measures light scatter and fluorescence of single cells or particles in a stream.

T1 sequence (P62837 whole entry): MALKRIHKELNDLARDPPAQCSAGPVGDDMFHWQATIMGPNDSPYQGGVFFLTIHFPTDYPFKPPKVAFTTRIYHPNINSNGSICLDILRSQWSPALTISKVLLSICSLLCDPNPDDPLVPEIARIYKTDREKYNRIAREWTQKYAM

As for “GFP-574-611: N-terminal GFP fusion of gp78 residues 574-611, a minimal E2 binding domain (SADERQRMLVQRKDELLQQARKRFLNKSSEDDAASESF; listed as Homo sapiens)”, in assay [1], the BiP level entry was “increases”, the CHOP level result was “marked increase”, the “GFP immunoreactivity over time” value is given as “rapid loss” and the phospho-eIF2α level entry is reported as “increases”. Also, the cell death result in assay [2] is on record as “lack of increased cell death”. In assay [3], the CHOP accumulation result is recorded as “no accumulation”, the “ER chaperone BiP level” value is recorded as “increase”, the phospho-eIF2α level entry was “increase” and the “total eIF2α level” value is recorded as “not significantly altered”. Further, in [3] (GFP immunoblot), the “loss of GFP fusion relative to mutant form” value was “nor was there any discernable loss”. For the same substance, in assay [4], the “effect on CD3-δ level (stabilization)” value is reported as “dramatically stabilized CD3-δ”. For the same substance, the “effect on CD3-δ level (stabilization)” value in [4] (listed as 574-611) is “sufficient to stabilize CD3-δ”. Also, in assay [5] (listed as G2BD), the “effect on TCR-α level (stabilization)” value is listed as “stabilized”. Moreover, the “effect on TCR-α level (stabilization)” value in assay [5] (listed as Ube2G2 binding site) is given as “markedly stabilized TCR-α”. The “cell death by microscopy” value in assay [6] is listed as “no microscopic evidence of increased cell death”. Besides, the “loss of cells expressing the GFP fusion, by microscopy” value in assay [7] is given as “differential loss”. In addition, the “co-immunoprecipitation of endogenous UbcH5B” value in assay [8] is “not co-immunoprecipitated”. In addition, in assay [9], the “annexin V staining (apoptosis marker)” value was “No significant increase”. Besides, the “apoptosis in human myelomas” value in [10] is “leads to apoptosis”. In [11], the “co-immunoprecipitation of endogenous Ube2G1” value is given as “not co-immunoprecipitated”. Further, the “co-immunoprecipitation of endogenous Ube2G2” value in assay [12] is listed as “sufficient to co-immunoprecipitate endogenous Ube2G2”. For the same substance, in assay [13], the “annexin V staining (apoptosis marker)” value was “dramatic increase”.

(Values after US8420776B2, “Ube2G2 binding domain in the ubiquitin ligase gp78 and methods of use thereof” (The United States of America, as Represented by the …, priority 2004, dated 2013).)
